For one assay, the target named is T1, FLT3 ITD, D835V (Homo sapiens, UniProt P36888, D835V, form not given).
T1 sequence (P36888 1-993 D835V): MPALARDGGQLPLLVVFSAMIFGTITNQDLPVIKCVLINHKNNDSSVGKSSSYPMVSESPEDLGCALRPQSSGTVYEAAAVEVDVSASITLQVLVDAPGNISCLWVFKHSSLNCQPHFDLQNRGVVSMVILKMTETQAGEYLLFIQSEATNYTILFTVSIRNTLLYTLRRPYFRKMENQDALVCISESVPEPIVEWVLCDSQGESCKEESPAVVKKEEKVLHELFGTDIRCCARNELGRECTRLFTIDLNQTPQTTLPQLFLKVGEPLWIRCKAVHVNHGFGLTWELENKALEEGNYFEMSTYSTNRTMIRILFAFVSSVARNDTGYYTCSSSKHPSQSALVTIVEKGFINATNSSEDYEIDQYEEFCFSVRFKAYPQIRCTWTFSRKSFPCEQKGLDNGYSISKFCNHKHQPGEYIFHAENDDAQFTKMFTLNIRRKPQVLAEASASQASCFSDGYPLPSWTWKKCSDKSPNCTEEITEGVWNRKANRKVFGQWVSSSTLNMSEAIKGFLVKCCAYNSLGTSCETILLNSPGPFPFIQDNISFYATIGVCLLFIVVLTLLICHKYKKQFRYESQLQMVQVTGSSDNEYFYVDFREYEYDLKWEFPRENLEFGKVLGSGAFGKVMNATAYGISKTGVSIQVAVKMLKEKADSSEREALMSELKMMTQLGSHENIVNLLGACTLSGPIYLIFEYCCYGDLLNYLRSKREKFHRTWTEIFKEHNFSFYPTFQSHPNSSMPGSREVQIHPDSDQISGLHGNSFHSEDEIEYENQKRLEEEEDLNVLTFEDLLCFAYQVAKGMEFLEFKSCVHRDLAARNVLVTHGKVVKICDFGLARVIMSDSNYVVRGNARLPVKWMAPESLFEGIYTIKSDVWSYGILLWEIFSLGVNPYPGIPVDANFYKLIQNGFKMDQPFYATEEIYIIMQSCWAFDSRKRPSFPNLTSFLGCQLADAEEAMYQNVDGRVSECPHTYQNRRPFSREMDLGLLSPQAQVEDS
As to the kind of experiment: DiscoverX KINOMEscan competition binding, FLT3 ITD, D835V. To be noted: read-out: FLT3 ITD, D835V Kd.

A further assay concerns the target T2, FLT3 D835V (Homo sapiens, UniProt P36888, D835V).
T2 construct: purchased DiscoverX (KINOMEscan)
T2 sequence (P36888 27-993 D835V): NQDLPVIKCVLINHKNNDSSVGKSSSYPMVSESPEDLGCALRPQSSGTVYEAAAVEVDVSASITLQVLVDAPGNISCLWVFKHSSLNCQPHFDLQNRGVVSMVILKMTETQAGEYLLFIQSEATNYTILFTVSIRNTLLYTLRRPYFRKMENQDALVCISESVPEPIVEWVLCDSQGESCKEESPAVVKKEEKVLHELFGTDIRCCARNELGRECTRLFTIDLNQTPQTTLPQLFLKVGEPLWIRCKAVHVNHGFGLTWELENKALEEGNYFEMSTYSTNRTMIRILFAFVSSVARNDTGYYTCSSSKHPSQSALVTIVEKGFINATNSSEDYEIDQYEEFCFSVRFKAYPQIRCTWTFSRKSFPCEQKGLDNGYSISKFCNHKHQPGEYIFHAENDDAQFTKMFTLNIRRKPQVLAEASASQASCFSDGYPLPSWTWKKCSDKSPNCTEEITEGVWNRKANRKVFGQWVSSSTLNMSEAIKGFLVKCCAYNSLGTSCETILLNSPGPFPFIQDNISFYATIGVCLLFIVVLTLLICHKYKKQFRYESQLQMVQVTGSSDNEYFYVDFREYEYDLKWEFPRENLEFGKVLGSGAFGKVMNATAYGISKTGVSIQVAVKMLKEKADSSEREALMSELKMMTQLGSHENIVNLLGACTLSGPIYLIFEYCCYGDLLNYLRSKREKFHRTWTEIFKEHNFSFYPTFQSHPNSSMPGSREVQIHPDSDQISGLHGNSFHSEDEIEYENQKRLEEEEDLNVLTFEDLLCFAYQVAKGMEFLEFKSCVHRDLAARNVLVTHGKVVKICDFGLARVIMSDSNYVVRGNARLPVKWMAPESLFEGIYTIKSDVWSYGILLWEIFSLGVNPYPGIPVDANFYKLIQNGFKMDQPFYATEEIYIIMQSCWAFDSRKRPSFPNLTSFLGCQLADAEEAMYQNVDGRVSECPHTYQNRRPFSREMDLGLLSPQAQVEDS
The assay is described as follows: DiscoverX KINOMEscan competition binding, FLT3 D835V.

Another assay deals with T3, FLT3 ITD (Homo sapiens, UniProt P36888).
T3 sequence (P36888 1-993): T1 sequence (P36888 1-993 D835V) with V835D
The assay is described as follows: DiscoverX KINOMEscan competition binding, FLT3 ITD. The following applies: read-out: FLT3 ITD Kd.

Experimental findings from patent publication US20250154144A1 (CHILDREN'S HOSPITAL MEDICAL CENTER, priority 2021, published 2025) are described below.

For orientation: Kd means the constant that tells how readily two partners part at equilibrium.

Numbering of substitutions follows the chain as printed.

`F[C@H]1CCNC[C@@H]1Nc1cncc(-c2cnc3cc(OC4CC4)ccn23)n1` [Compound 12, 6-(7-cyclopropoxyimidazo[1,2-a]pyridin-3-yl)-N-((3S,4S)-4-fluoropiperidin-3-yl)pyrazin-2-amine]: the Kd at FLT3 ITD, D835V was 0.035 nM; on FLT3 D835V, 0.16 nM; on FLT3 ITD it was 0.87 nM.

For `COc1cc2ncc(-c3ccnc(N[C@H]4CNCC[C@@H]4F)n3)n2nc1C1CC1` [Compound 51, 4-(6-cyclopropyl-7-methoxyimidazo[1,2-b]pyridazin-3-yl)-N-((3S,4S)-4-fluoropiperidin-3-yl)pyrimidin-2-amine], the equilibrium dissociation constant (Kd) at FLT3 ITD, D835V amounted to 0.07 nM; at FLT3 D835V it was 0.11 nM; on FLT3 ITD, 2 nM.

Take `COc1cc2ncc(-c3cncc(N[C@H]4CNCC[C@@H]4F)n3)n2nc1C1CC1` [Compound 24, 6-(6-cyclopropyl-7-methoxyimidazo[1,2-b]pyridazin-3-yl)-N-((3S,4S)-4-fluoropiperidin-3-yl)pyrazin-2-amine]: the Kd on FLT3 ITD, D835V came to 0.045 nM; at FLT3 D835V, 0.063 nM; at FLT3 ITD, 0.97 nM.

As to `COc1cc2ncc(-c3ccnc(N[C@@H]4CCCNC4)n3)n2cc1C(C)(C)O` [Compound 44, (R)-2-(7-methoxy-3-(2-(piperidin-3-ylamino)pyrimidin-4-yl)imidazo[1,2-a]pyridin-6-yl)propan-2-ol], the Kd at FLT3 ITD, D835V was 0.009 nM; at FLT3 D835V it was 0.042 nM; at FLT3 ITD, 0.42 nM.

In the case of `COc1cc2ncc(-c3cncc(N[C@H]4CNC[C@@H]4F)n3)n2nc1C1CC1` [Compound 22, 6-(6-cyclopropyl-7-methoxyimidazo[1,2-b]pyridazin-3-yl)-N-((3S,4S)-4-fluoropyrrolidin-3-yl)pyrazin-2-amine], the Kd worked out at 0.058 nM at FLT3 ITD, D835V; 0.15 nM at FLT3 D835V; 0.67 nM on FLT3 ITD.

For the molecule `CC(O)(c1cn2c(-c3ccnc(N[C@H]4CNCC[C@@H]4F)n3)cnc2cn1)C(F)(F)F` (single isomer, unassigned) [Compound 72], the Kd at FLT3 ITD, D835V came to 0.08 nM; at FLT3 D835V, 0.47 nM; at FLT3 ITD, 0.62 nM.

On to `COc1cc2ncc(-c3ccnc(N[C@H]4CNC[C@@H]4F)n3)n2nc1C1CC1` [Compound 49, 4-(6-cyclopropyl-7-methoxyimidazo[1,2-b]pyridazin-3-yl)-N-((3S,4S)-4-fluoropyrrolidin-3-yl)pyrimidin-2-amine], for which the Kd on FLT3 ITD, D835V stood at 0.04 nM; at FLT3 D835V, 0.06 nM; at FLT3 ITD, 0.59 nM.
